We go through nine compounds from article PMC9883482, “TPX2 enhances the transcription factor activation of PXR and enhances the resistance of hepatocellular carcinoma cells to antitumor drugs” (Cell Death & Disease, 2023).

Usually IC50 stands for the concentration needed to halve the response being measured.

In one data set the test system is MHCC97-H cells. The experiment in a line: MTT cell survival examination. The data set is classed as cell-based. To be noted: Homo sapiens, MHCC97H, 48 h. As for the experimental part:
(§1) In the process of dissolving these pure drug powders, stirring, vortexing, and ultrasonic vibration were used to assist dissolution [17, 18]. After a drug was fully dissolved, Dulbecco’s modified Eagle’s medium (DMEM) without fetal bovine serum (FBS) was used to dilute the drug dissolved in DMSO. For doxorubicin, we used DMEM without FBS to dissolve the drug. When performing cell viability experiments (tetrazolium [MTT] assays), these drugs were diluted.
(§2) The antitumor activity of antitumor drugs injuring HCC cells was examined by using MTT assay. After culturing the HCC cells, transfection experiments were performed, and the cells were then seeded in 96-well cell culture plates (about 8000 cells per well). […] After the cells were treated with the drug for about 48 h, a dose of […] tetrazolium (MTT) reagent was added, and cells with the MTT reagent were incubated for 5 to 6 h. After incubation with the MTT was complete, all liquid in the 96-well cell culture plate was discarded, and about 100 μl of DMSO was added to each well to dissolve the cell samples. During the process of lysing the cell samples, the cell culture plate was shaken for 15 minutes to completely lyse the cells. After the lysis step was complete, the cell culture plate was centrifuged at 12,000 rpm at 4 °C, and the supernatant was collected for evaluation.
(§3) All statistical analyses in the presence work were performed using the GraphPad 8.0 (GraphPad Software Corporation, Armonk, NY, USA). […] For the survival analysis data, the survival curves were analyzed by the log-rank (Mantel–Cox) test to detect the P-value of the survival curve, the median survival time, and the 95% confidence interval (CI). For the co-relationship analysis, the data were analyzed by linear regression to determine the overall trend of a group of data points. […] If the slope was positive, the horizontal coordinate was positively related to the vertical coordinate, and if the slope was negative, the horizontal coordinate was negatively related to the vertical coordinate. For the multi-grouped data, the ordinary one-way analysis of variance (ANOVA) and multiple comparison methods were used. An ANOVA was used to examine whether any difference between groups could be detected. The multiple comparisons (t-test) was used to detect differences between pairs of data.

The subject of the next data set is HepG2 cells. Put plainly: MTT cell survival examination. In kind it is cell-based. As to conditions: Homo sapiens, HepG2, 48 h. The protocol: as §1, §2, §3
In the next data set the test system is MHCC97-L cells. The experiment in a line: MTT cell survival examination. In kind it is cell-based. To be noted: Homo sapiens, MHCC97L, 48 h, median (95% CI). The protocol:
as §1, §2, §3

Another data set concerns the target T1, PXR (Homo sapiens, UniProt O75469).
T1 sequence (O75469 1-434): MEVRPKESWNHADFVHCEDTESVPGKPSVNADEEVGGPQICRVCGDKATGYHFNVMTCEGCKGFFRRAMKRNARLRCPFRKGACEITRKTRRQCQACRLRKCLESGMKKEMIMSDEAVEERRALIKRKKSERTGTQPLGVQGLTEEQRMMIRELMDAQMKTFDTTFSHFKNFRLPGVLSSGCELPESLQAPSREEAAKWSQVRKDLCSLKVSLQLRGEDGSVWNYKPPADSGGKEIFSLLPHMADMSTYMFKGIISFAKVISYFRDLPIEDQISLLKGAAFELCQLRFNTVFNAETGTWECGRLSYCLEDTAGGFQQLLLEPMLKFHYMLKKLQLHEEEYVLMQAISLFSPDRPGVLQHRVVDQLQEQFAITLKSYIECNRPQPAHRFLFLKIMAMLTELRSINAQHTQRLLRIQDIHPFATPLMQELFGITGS
As to conditions: in combination with rifampicin.

Data set [1] deals with cyp3a4 and mdr-1 mRNA (PXR downstream genes). To be noted: human.
The mark [2] stands for this setting: HepG2, Control, median (95% CI).
[3] abbreviates: HepG2, TPX2 overexpression, median (95% CI).

Consider `CCc1c2c(nc3ccc(OC(=O)N4CCC(N5CCCCC5)CC4)cc13)-c1cc3c(c(=O)n1C2)COC(=O)[C@]3(O)CC` [irinotecan], for which the IC50 in the data set with MHCC97-H cells (Control, median (95% CI)) stood at 520 nM; with MHCC97-H cells (siTPX2, median (95% CI)) it was 160 nM; in the data set with HepG2 cells (setting [2]), 300 nM; with HepG2 cells (setting [3]), 820 nM; in the data set with HepG2 cells (HepG2, siTPX2, median (95% CI)), 100 nM; with MHCC97-L cells (Control), 430 nM. The IC50 with MHCC97-L cells (TPX2 overexpression) is 970 nM.
Turning to `COc1cc([C@@H]2c3cc4c(cc3[C@@H](O[C@@H]3O[C@@H]5CO[C@@H](C)O[C@H]5[C@H](O)[C@H]3O)[C@H]3COC(=O)[C@H]23)OCO4)cc(OC)c1O` [etoposide], the IC50 in the data set with MHCC97-H cells (Control, median (95% CI)) is 250 nM; with MHCC97-H cells (siTPX2, median (95% CI)), 100 nM; with HepG2 cells (setting [2]) it was 460 nM; with HepG2 cells (setting [3]) it was 1930 nM; with HepG2 cells (HepG2, siTPX2, median (95% CI)), 180 nM; in the data set with MHCC97-L cells (Control), 380 nM. This compound displayed an IC50 in the data set with MHCC97-L cells (TPX2 overexpression) of 1320 nM.
On to `COc1cc2nccc(Oc3ccc(NC(=O)C4(C(=O)Nc5ccc(F)cc5)CC4)cc3)c2cc1OC` [cabozantinib], for which the IC50 was 760 nM in the data set on MHCC97-H cells (Control, median (95% CI)); 260 nM with MHCC97-H cells (siTPX2, median (95% CI)); 880 nM with HepG2 cells (setting [2]); 4780 nM in the data set with HepG2 cells (setting [3]); 390 nM in the data set on HepG2 cells (HepG2, siTPX2, median (95% CI)); 1470 nM with MHCC97-L cells (Control). In addition, in the data set on MHCC97-L cells (TPX2 overexpression), the IC50 was determined as 5030 nM.
As to `COc1cccc2c1C(=O)c1c(O)c3c(c(O)c1C2=O)C[C@@](O)(C(=O)CO)C[C@@H]3O[C@H]1C[C@H](N)[C@H](O)[C@H](C)O1` [doxorubicin], the IC50 amounted to 200 nM with MHCC97-H cells (Control, median (95% CI)); 60 nM in the data set with MHCC97-H cells (siTPX2, median (95% CI)); 330 nM with HepG2 cells (setting [2]); 1590 nM with HepG2 cells (setting [3]); 50 nM in the data set with HepG2 cells (HepG2, siTPX2, median (95% CI)); 250 nM in the data set on MHCC97-L cells (Control). Moreover, the IC50 in the data set with MHCC97-L cells (TPX2 overexpression) is 820 nM.
Turning to `CNC(=O)c1cc(Oc2ccc(NC(=O)Nc3ccc(Cl)c(C(F)(F)F)c3)c(F)c2)ccn1` [regorafenib], the 50% inhibitory concentration (IC50) in the data set with MHCC97-H cells (Control, median (95% CI)) stood at 990 nM; in the data set on MHCC97-H cells (siTPX2, median (95% CI)), 750 nM; in the data set on HepG2 cells (setting [2]), 1010 nM; in the data set on HepG2 cells (setting [3]), 3650 nM; with HepG2 cells (HepG2, siTPX2, median (95% CI)) it was 620 nM; in the data set on MHCC97-L cells (Control), 1500 nM. The IC50 with MHCC97-L cells (TPX2 overexpression) was 4930 nM.
`CC[C@]1(O)C[C@H]2CN(CCc3c([nH]c4ccccc34)[C@@](C(=O)OC)(c3cc4c(cc3OC)N(C=O)[C@H]3[C@@](O)(C(=O)OC)[C@H](OC(C)=O)[C@]5(CC)C=CCN6CC[C@]43[C@@H]65)C2)C1` [vincristine]: at PXR, the “effect on TPX2/rifampicin-driven PXR recruitment to cyp3a4 promoter or enhancer” value is “almost blocked”.
Take `CC(=O)O[C@H]1C(=O)[C@@]2(C)[C@H]([C@H](OC(=O)c3ccccc3)[C@]3(O)C[C@H](OC(=O)[C@H](O)[C@@H](NC(=O)c4ccccc4)c4ccccc4)C(C)=C1C3(C)C)[C@]1(OC(C)=O)CO[C@@H]1C[C@@H]2O` [paclitaxel]: the IC50 was found to be 12.7 nM with MHCC97-H cells (Control, median (95% CI)); 4.2 nM in the data set on MHCC97-H cells (siTPX2, median (95% CI)); 14.8 nM with HepG2 cells (setting [2]); 240 nM with HepG2 cells (setting [3]); 8.31 nM in the data set with HepG2 cells (HepG2, siTPX2, median (95% CI)); 22 nM with MHCC97-L cells (Control). In addition, 150 nM corresponded to half-maximal inhibition in the data set with MHCC97-L cells (TPX2 overexpression) (IC50).
`CC(=O)N1CCN(c2ccc(OCC3COC(Cn4ccnc4)(c4ccc(Cl)cc4Cl)O3)cc2)CC1` (stereo not drawn) [ketoconazole]: the “effect on rifampicin- and TPX2-induced transcription of PXR downstream genes (mRNA levels)” value in data set [1] is “almost blocked the effects of rifampicin and TPX2”.
For the compound `COc1cc2nccc(Oc3ccc(NC(=O)NC4CC4)c(Cl)c3)c2cc1C(N)=O` [lenvatinib], the IC50 was determined as 1070 nM in the data set with MHCC97-H cells (Control, median (95% CI)); 500 nM with MHCC97-H cells (siTPX2, median (95% CI)); 1300 nM in the data set on HepG2 cells (setting [2]); 5890 nM in the data set with HepG2 cells (setting [3]); 330 nM in the data set on HepG2 cells (HepG2, siTPX2, median (95% CI)); 1940 nM with MHCC97-L cells (Control). Further, the IC50 in the data set on MHCC97-L cells (TPX2 overexpression) is 5730 nM.
